From the CheMixHub ionic liquid set
± gives the uncertainty stated by the source.

Experiment: xn = mol fraction of the nth substance listed

CCCCCCCCCCCCCC[P+](CCCCCC)(CCCCCC)CCCCCC.O=[N+]([O-])c1cn[n-]c1 + CCCCCC[n+]1ccn(C)c1.O=S(=O)([N-]S(=O)(=O)C(F)(F)F)C(F)(F)F
100 kPa
Conditions	viscosity [mPa·s]
278.15 K, x2 = 0.7	830 ± 110
293.15 K, x2 = 0.203	790 ± 100

CCC(=O)[O-].CC[NH+]1CCNCC1 + CCCCO
Conditions	viscosity [mPa·s]
313.15 K, 101 kPa, x2 = 0.6004	14.05 ± 0.24

CCCCCCCCCCCC[N+](C)(C)Cc1ccccc1.O=S(=O)([N-]S(=O)(=O)C(F)(F)F)C(F)(F)F + CCCCO
101 kPa
Conditions	viscosity [mPa·s]
298.15 K, x1 = 1	1425 ± 200
303.15 K, x1 = 0.3015	34.1 ± 3.4
308.15 K, x1 = 0.3015	27.3 ± 2.7
308.15 K, x1 = 1	683 ± 88
313.15 K, x1 = 0.7485	198 ± 22
318.15 K, x1 = 0.1507	7.45 ± 0.75
318.15 K, x1 = 0.4494	37.6 ± 3.8
328.15 K, x1 = 0.9164	159 ± 17
333.15 K, x1 = 0.1507	4.83 ± 0.48
333.15 K, x1 = 0.4494	20.6 ± 2.1
333.15 K, x1 = 0.594	40.9 ± 4.1
338.15 K, x1 = 0.7485	63 ± 6.3
338.15 K, x1 = 1	118 ± 12
343.15 K, x1 = 0.7485	52.4 ± 5.3
348.15 K, x1 = 0.594	25.2 ± 2.5

FC1CC(F)(F)C(F)(F)C1(F)F (centres undefined) + CCCC[N+]1(C)CCCC1.FC(F)(F)C(F)(F)[P-](F)(F)(F)(C(F)(F)C(F)(F)F)C(F)(F)C(F)(F)F
101 kPa
Conditions	electrical conductivity [S/m]	viscosity [mPa·s]
298.1 K, x2 = 0	–	1.65 ± 0.07
298.1 K, x2 = 0.252	–	8.05 ± 0.36
298.1 K, x2 = 0.438	–	21.3 ± 0.9
298.1 K, x2 = 0.653	0.275 ± 0.006	–
298.1 K, x2 = 0.842	0.167 ± 0.003	–
303 K, x2 = 0.177	0.746 ± 0.015	–
303 K, x2 = 0.434	0.424 ± 0.008	–
303 K, x2 = 0.839	0.21 ± 0.004	–
303 K, x2 = 0.844	–	87.6 ± 3.9
308.1 K, x2 = 0.077	0.594 ± 0.012	–
313 K, x2 = 0.183	0.88 ± 0.018	–
318.1 K, x2 = 0.077	0.699 ± 0.014	–
318.1 K, x2 = 0.437	–	11.2 ± 0.46
318.1 K, x2 = 0.836	0.359 ± 0.007	–
323 K, x2 = 0.655	–	21.17 ± 0.87

Cc1ccccc1 + CCCC[N+]1(C)CCCC1.O=S(=O)([N-]S(=O)(=O)C(F)(F)F)C(F)(F)F
Conditions	viscosity [mPa·s]
308.15 K, 100 kPa, x1 = 1	0.509 ± 0.012

OC[C@H]1O[C@@](CO)(O[C@H]2O[C@H](CO)[C@@H](O)[C@H](O)[C@H]2O)[C@@H](O)[C@@H]1O + CCCC[N+](C)(CCCC)CCCC.[Cl-] + O
viscosity [mPa·s], 101.3 kPa
Conditions	x1 = 0.0003585, x2 = 0	x1 = 0.0007185, x2 = 0	x1 = 0.001078, x2 = 0	x1 = 0.00144, x2 = 0	x1 = 0.001799, x2 = 0	x1 = 0.002163, x2 = 0	x1 = 0.002507, x2 = 0
293.15 K	1.016 ± 0.016	1.038 ± 0.016	1.059 ± 0.016	1.081 ± 0.016	1.094 ± 0.016	1.112 ± 0.016	1.133 ± 0.016
298.15 K	0.906 ± 0.016	0.921 ± 0.016	0.935 ± 0.016	0.957 ± 0.016	0.972 ± 0.016	0.987 ± 0.016	1.006 ± 0.016
303.15 K	0.807 ± 0.015	0.817 ± 0.015	0.83 ± 0.015	0.847 ± 0.015	0.861 ± 0.015	0.878 ± 0.015	0.891 ± 0.015
308.15 K	0.725 ± 0.015	0.733 ± 0.015	0.745 ± 0.015	0.759 ± 0.015	0.772 ± 0.015	0.786 ± 0.015	0.8 ± 0.015
313.15 K	0.657 ± 0.015	0.664 ± 0.015	0.674 ± 0.015	0.683 ± 0.015	0.697 ± 0.015	0.71 ± 0.015	0.721 ± 0.015

CCCCCCCCCC(=O)O + CCCC[N+](CCCC)(CCCC)CCCC.[Cl-]
100 kPa
Conditions	electrical conductivity, x2 = 0.25 [S/m]	viscosity, x2 = 0.25 [mPa·s]	viscosity, x2 = 0.333 [mPa·s]
293.15 K	0.00575 ± 0.00058	201 ± 37	–
303.15 K	0.00886 ± 0.00089	135 ± 18	–
313.15 K	0.0133 ± 0.0013	93.3 ± 7.8	155 ± 18
323.15 K	0.0194 ± 0.0019	65.9 ± 2.6	–
333.15 K	0.0277 ± 0.0028	47.5 ± 1.6	–
343.15 K	–	–	39.5 ± 1.9

CC(=O)O.CC(=O)[O-].CC[NH+](CC)CCO + CCCC[n+]1ccn(C)c1.COP(=O)([O-])OC
101 kPa
Conditions	viscosity [mPa·s]
278.15 K, x1 = 0.3316	453 ± 17
278.15 K, x1 = 0.5275	335 ± 11
283.15 K, x1 = 0.7493	220 ± 6.5
288.15 K, x1 = 0.5275	168.3 ± 4.1
293.15 K, x1 = 0.0748	568 ± 20
293.15 K, x1 = 0.7493	116.3 ± 2.9
298.15 K, x1 = 0.5275	93.7 ± 2
298.15 K, x1 = 0.6343	91.1 ± 2
298.15 K, x1 = 0.8567	76.9 ± 1.9
303.15 K, x1 = 0.0748	283.6 ± 7.4
303.15 K, x1 = 1	59.6 ± 1.6
308.15 K, x1 = 0.3316	74.6 ± 1.4
308.15 K, x1 = 0.7493	53.4 ± 1.2
313.15 K, x1 = 0.5275	44.19 ± 0.86
313.15 K, x1 = 0.6343	42.6 ± 0.9
318.15 K, x1 = 0.8567	27.56 ± 0.67
323.15 K, x1 = 0.5275	30.28 ± 0.59
323.15 K, x1 = 0.6343	29.17 ± 0.61
323.15 K, x1 = 0.8567	22.27 ± 0.54
328.15 K, x1 = 0.0748	73.3 ± 1
328.15 K, x1 = 0.4263	27.4 ± 0.5
328.15 K, x1 = 0.7493	23.34 ± 0.53
333.15 K, x1 = 0.6343	18.02 ± 0.38
333.15 K, x1 = 0.7493	17.41 ± 0.39
338.15 K, x1 = 0.0748	47.83 ± 0.65
343.15 K, x1 = 0.7493	13.68 ± 0.31
348.15 K, x1 = 0.6343	12.02 ± 0.25
348.15 K, x1 = 1	8.93 ± 0.23
358.15 K, x1 = 0.5275	9.3 ± 0.18
358.15 K, x1 = 0.8567	6.94 ± 0.17
358.15 K, x1 = 1	6.65 ± 0.17
363.15 K, x1 = 1	5.8 ± 0.15
368.15 K, x1 = 0.5275	7.03 ± 0.14
368.15 K, x1 = 0.6343	6.64 ± 0.14

CCCC(=O)[O-].CC[NH+](CC)CCO + CCCC[n+]1ccn(C)c1.COP(=O)([O-])OC
101 kPa
Conditions	viscosity [mPa·s]
278.15 K, x1 = 0.8006	196.8 ± 5.1
278.15 K, x1 = 1	189 ± 5.1
283.15 K, x1 = 0.6001	182.3 ± 4.4
283.15 K, x1 = 1	133.9 ± 3.3
288.15 K, x1 = 0.1023	864 ± 35
288.15 K, x1 = 0.6613	121.1 ± 2.6
293.15 K, x1 = 0.3985	163.9 ± 3.7
293.15 K, x1 = 0.498	123.1 ± 2.6
293.15 K, x1 = 0.6001	99.4 ± 2
293.15 K, x1 = 0.8788	74.2 ± 1.5
298.15 K, x1 = 0.1989	264.3 ± 6.8
303.15 K, x1 = 0.1989	194.8 ± 4.4
303.15 K, x1 = 0.6001	58.8 ± 1.1
308.15 K, x1 = 0.3985	73.2 ± 1.3
313.15 K, x1 = 0.3026	78 ± 1.3
313.15 K, x1 = 0.498	45.11 ± 0.79
313.15 K, x1 = 0.6613	33.88 ± 0.62
318.15 K, x1 = 0.1023	124.4 ± 2.2
318.15 K, x1 = 0.6001	30.12 ± 0.54
318.15 K, x1 = 0.8006	23.35 ± 0.46
323.15 K, x1 = 0.1989	69.7 ± 1
323.15 K, x1 = 0.6613	22.66 ± 0.42
328.15 K, x1 = 0.6001	20.62 ± 0.37
338.15 K, x1 = 0.6613	13.49 ± 0.25
338.15 K, x1 = 0.8006	11.39 ± 0.22
338.15 K, x1 = 1	9.73 ± 0.21
343.15 K, x1 = 0.1989	31.59 ± 0.46
343.15 K, x1 = 0.3985	18.82 ± 0.31
343.15 K, x1 = 0.6001	12.63 ± 0.23
348.15 K, x1 = 0.498	13.05 ± 0.23
353.15 K, x1 = 0.3026	17.55 ± 0.27
353.15 K, x1 = 0.8006	7.3 ± 0.14
353.15 K, x1 = 0.8788	6.78 ± 0.14
353.15 K, x1 = 1	6.11 ± 0.13
358.15 K, x1 = 0.3985	12.24 ± 0.2
358.15 K, x1 = 0.6613	7.62 ± 0.14
358.15 K, x1 = 1	5.31 ± 0.11
368.15 K, x1 = 0.3026	11.71 ± 0.18
368.15 K, x1 = 1	4.09 ± 0.09
